Results taken from ChEMBL document CHEMBL1201862, “PubChem BioAssay data set” (2004).
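A five-concentration, 48-hour dose response in 96-well plates underlies each endpoint, interpolated linearly between surrounding concentrations. Abbreviation: GI50, concentration required for 50% inhibition of growth.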 The source made the active and inactive calls. No stated cut-off is given here; in the data, active = GI50 up to about 1.1 µM and inactive = higher.

How the values were obtained:
Assay in all cases: NCI-60 cell line screen, 48 h
[1] = system: HOP-62
[2] = system: SN12C
[3] = system: A498
[4] = system: UO-31
[5] = system: A549
[6] = system: HCT-116
[7] = system: OVCAR-4
[8] = system: CCRF-CEM
[9] = system: MDA-MB-435
[10] = system: SF-295
[11] = system: Malme-3M
[12] = system: SNB-75
[13] = system: SK-MEL-2
[14] = system: K562
[15] = system: ACHN
[16] = system: HCT-15
[17] = system: PC-3
[18] = system: EKVX
[19] = system: LOX IMVI
[20] = system: CAKI-1
[21] = system: M14
[22] = system: RXF 393
[23] = system: SK-OV-3
[24] = system: SF-268
[25] = system: SW-620
[26] = system: COLO 205
[27] = system: HOP-92
[28] = system: BT-549
[29] = system: MOLT-4
[30] = system: OVCAR-3
[31] = system: UACC-62
[32] = system: NCI-H226
[33] = system: MDA-N
[34] = system: Hs-578T
[35] = system: NCI-H460
[36] = system: U-251
[37] = system: OVCAR-5
[38] = system: NCI-H522
[39] = system: IGROV-1
[40] = system: DU-145
[41] = system: SK-MEL-28
[42] = system: SF-539
[43] = system: 786-0
[44] = system: SK-MEL-5
[45] = system: NCI/ADR-RES
[46] = system: NCI-H23
[47] = system: KM12
[48] = system: OVCAR-8
[49] = system: RPMI-8226
[50] = system: MCF7
[51] = system: SNB-19
[52] = system: MDA-MB-231
[53] = system: TK-10
[54] = system: SR
[55] = system: T47D
[56] = system: HT-29
[57] = system: HCC 2998
[58] = system: UACC-257
[59] = system: HL-60

Structure (SMILES): COc1ccc2nc(-c3ccc(O)cc3)cn2c1
- GI50 [1]: 50.1 µM (inactive)
- GI50 [2]: 94.8 µM (inactive)
- GI50 [3]: 71.4 µM (inactive)
- GI50 [4]: 35 µM (inactive)
- GI50 [5]: 64 µM (inactive)
- GI50 [6]: 48.5 µM (inactive)
- GI50 [7]: 73.8 µM (inactive)
- GI50 [8]: 72.1 µM (inactive)
- GI50 [9]: 18.5 µM (inactive)
- GI50 [10]: > 100 µM (inactive)
- GI50 [11]: > 100 µM (inactive)
- GI50 [12]: 95.5 µM (inactive)
- GI50 [13]: > 100 µM (inactive)
- GI50 [14]: 37.1 µM (inactive)
- GI50 [15]: 23.3 µM (inactive)
- GI50 [16]: 48.8 µM
- GI50 [17]: 43.9 µM (inactive)
- GI50 [18]: 98.6 µM (inactive)
- GI50 [19]: 59 µM (inactive)
- GI50 [20]: 55.8 µM (inactive)
- GI50 [21]: 47.4 µM (inactive)
- GI50 [22]: > 100 µM (inactive)
- GI50 [23]: > 100 µM (inactive)
- GI50 [24]: 56.8 µM (inactive)
- GI50 [25]: 11.7 µM (inactive)
- GI50 [26]: 43.5 µM (inactive)
- GI50 [27]: 95.7 µM (inactive)
- GI50 [28]: > 100 µM (inactive)
- GI50 [29]: 49.1 µM (inactive)
- GI50 [30]: 82 µM (inactive)
- GI50 [31]: 24.7 µM (inactive)
- GI50 [32]: > 100 µM (inactive)
- GI50 [33]: 23.4 µM (inactive)
- GI50 [34]: 73.1 µM (inactive)
- GI50 [35]: 27.4 µM (inactive)
- GI50 [36]: 44.7 µM (inactive)
- GI50 [37]: > 100 µM (inactive)
- GI50 [38]: 32 µM (inactive)
- GI50 [39]: 42.4 µM (inactive)
- GI50 [40]: 86.9 µM (inactive)
- GI50 [41]: 85.5 µM (inactive)
- GI50 [42]: 54.1 µM (inactive)
- GI50 [43]: 58.7 µM (inactive)
- GI50 [44]: 16.6 µM (inactive)
- GI50 [45]: 65.8 µM (inactive)
- GI50 [46]: 71.9 µM (inactive)
- GI50 [47]: 50.2 µM (inactive)
- GI50 [48]: 51.3 µM (inactive)
- GI50 [49]: 32.2 µM (inactive)
- GI50 [50]: 36 µM (inactive)
- GI50 [51]: > 100 µM (inactive)
- GI50 [52]: > 100 µM (inactive)
- GI50 [53]: 71 µM (inactive)
- GI50 [54]: 10 µM (inactive)
- GI50 [55]: 89.9 µM (inactive)
- GI50 [56]: 46.6 µM (inactive)

Structure (SMILES): O=c1oc2ccccc2cc1-c1cn2cc(Cl)ccc2n1
- GI50 [1]: 0.714 µM (active)
- GI50 [2]: 2.98 µM (inactive)
- GI50 [4]: 1.32 µM (inactive)
- GI50 [5]: 0.719 µM (active)
- GI50 [6]: 0.448 µM (active)
- GI50 [7]: 2.46 µM (inactive)
- GI50 [9]: 0.0434 µM (active)
- GI50 [10]: 0.535 µM (active)
- GI50 [11]: 0.458 µM (active)
- GI50 [12]: 1.76 µM (inactive)
- GI50 [13]: 3.27 µM (inactive)
- GI50 [14]: 0.495 µM (active)
- GI50 [15]: 0.586 µM (active)
- GI50 [16]: 0.298 µM
- GI50 [17]: 1.93 µM (inactive)
- GI50 [18]: 21.6 µM (inactive)
- GI50 [19]: 0.698 µM (active)
- GI50 [20]: 0.422 µM (active)
- GI50 [21]: 0.544 µM (active)
- GI50 [22]: 2.28 µM (inactive)
- GI50 [23]: 0.773 µM (active)
- GI50 [24]: 1.44 µM (inactive)
- GI50 [25]: 0.361 µM (active)
- GI50 [26]: 0.865 µM (active)
- GI50 [27]: 5.45 µM (inactive)
- GI50 [28]: 2.33 µM (inactive)
- GI50 [29]: 0.422 µM (active)
- GI50 [30]: 0.497 µM (active)
- GI50 [31]: 0.245 µM (active)
- GI50 [32]: 15.6 µM (inactive)
- GI50 [33]: 0.0881 µM (active)
- GI50 [34]: 1.23 µM (inactive)
- GI50 [35]: 0.488 µM (active)
- GI50 [36]: 0.653 µM (active)
- GI50 [37]: 10.1 µM (inactive)
- GI50 [57]: 1.13 µM (inactive)
- GI50 [38]: 0.104 µM (active)
- GI50 [39]: 0.685 µM (active)
- GI50 [40]: 5.57 µM (inactive)
- GI50 [41]: 2.08 µM (inactive)
- GI50 [42]: 1.48 µM (inactive)
- GI50 [43]: 1 µM (active)
- GI50 [44]: 0.782 µM (active)
- GI50 [58]: 4.58 µM (inactive)
- GI50 [45]: 0.345 µM (active)
- GI50 [46]: 3.09 µM (inactive)
- GI50 [47]: 0.296 µM (active)
- GI50 [48]: 1.71 µM (inactive)
- GI50 [49]: 0.532 µM (active)
- GI50 [50]: 0.435 µM (active)
- GI50 [51]: 0.494 µM (active)
- GI50 [52]: 3.01 µM (inactive)
- GI50 [53]: 7.53 µM (inactive)
- GI50 [59]: 2.59 µM (inactive)
- GI50 [54]: 0.0687 µM (active)
- GI50 [55]: 11 µM (inactive)
- GI50 [56]: 7.11 µM (inactive)
